Patent publication US8252751B2, “Organic compounds” (Novartis AG, priority 2007, dated 2012)
“And” between values parts separate entries of the source, which are not always exact repeats. Equal entries are not always repeated. Where two headings read alike, the source gives them in different places.

Experiments:
Assay type in all cases: biochemical
human DPP-8 = biological target: T1, human DPP-8 (Homo sapiens, UniProt Q6V1X1); experiment: DPP-8 (dipeptidyl-peptidase 8) IC50 assay, Gly-Pro-AMC fluorescence intensity
T1 construct: human DPP-8 covering amino acid 1-882; made in house; host or cells: insect cells (baculovirus expression system)
Description: (§1) For fluorescence intensity (FI) measurements with AMC as dye, an Ultra Evolution reader (TECAN, Maennedorf, Switzerland) was used. The instrument was equipped with a combination of a 350 nm (20 nm bandwidth) and a 500 nm (25 nm bandwidth) bandpath filter for fluorescence excitation and emission acquisition, respectively. To increase the signal:background ratio, an appropriate dichroic mirror was employed. All filters and the dichroic mirror were purchased from TECAN.
(§2) The data from the independent assay runs was averaged and plotted using program of Origin 7.5SR6 (OriginLab Corporation, Northampton, Mass., USA). Origin's built-in non-linear regression routine was used to fit the averaged data to the ‘logistics’ function y=A2+(A1−A2)/(1+(x/IC50)^p) (Equation 1) where y is the %-inhibition at the inhibitor concentration, x. A1 is the lowest inhibition value, i.e. 0%, and A2 the maximum inhibition value, i.e. 100%. The exponent, p, is the Hill coefficient. B. Determination of IC50 Values […]
(§3) For the determination of IC50 values, the assays were performed at room temperature in 384-well plates. All final assay volumes were 30 μl. Test compounds were dissolved in 90% (v/v) DMSO/water and diluted in water (containing 0.05% (w/v) CHAPS) to 3-times the desired assay concentration. For each assay, 10 μl water/CHAPS (±test compound) were added per well, followed by 10 μl protease solution (diluted with assay buffer; for final assay concentration cf. § Assay conditions). After 1 hour of incubation at room temperature, the reaction was started by addition of 10 μl substrate solution (for final concentrations cf. § Assay conditions). The eleven final compound concentrations were either 0.9 nM, 3 nM, 9 nM, 30 nM, 90 nM, 300 nM, 900 nM, 3 μM, 9 μM, 30 μM and 90 μM or 3 nM, 10 nM, 30 nM, 100 nM, 300 nM, 1 μM, 3 μM, 10 μM, 30 μM, 100 μM and 300 μM. The effect of the compound on the enzymatic activity was obtained from the linear progress curves and determined from two readings, the first one taken directly after the addition of substrate (t=0 min) and the second one after 1 hour (t=60 min). The IC50 value was calculated from the plot of percentage of inhibition vs. inhibitor concentration using non-linear regression analysis software (XLfit, Vers. 4.0; ID Business Solution Ltd., Guildford, Surrey, UK).
(§4) 4.—DPP-8 (dipeptidyl-peptidase 8) enzyme: human DPP-8 covering amino acid 1-882; expressed in and purified from insect cells (baculovirus expression system) substrate: Gly-Pro-AMC, purchased from Bachem (www.bachem.com), catalogue number I-1225 enzyme concentration: 0.05 nM substrate concentration: 10 μM assay buffer: 25 mM Tris, pH 7.4, 140 mM NaCl, 10 mM KCl, 0.05% (w/v) CHAPS

human FAP = biological target: T2, human FAP (Homo sapiens, UniProt Q12884); experiment: FAP (fibroblast activation protein, alpha) IC50 assay, Z-Gly-Pro-AMC fluorescence intensity
T2 construct: human FAPa covering amino acid 27-760 excluding the cytoplasmic and transmebrane domains; made in house; host or cells: insect cells (baculovirus expression system)
T2 sequence (Q12884 27-760): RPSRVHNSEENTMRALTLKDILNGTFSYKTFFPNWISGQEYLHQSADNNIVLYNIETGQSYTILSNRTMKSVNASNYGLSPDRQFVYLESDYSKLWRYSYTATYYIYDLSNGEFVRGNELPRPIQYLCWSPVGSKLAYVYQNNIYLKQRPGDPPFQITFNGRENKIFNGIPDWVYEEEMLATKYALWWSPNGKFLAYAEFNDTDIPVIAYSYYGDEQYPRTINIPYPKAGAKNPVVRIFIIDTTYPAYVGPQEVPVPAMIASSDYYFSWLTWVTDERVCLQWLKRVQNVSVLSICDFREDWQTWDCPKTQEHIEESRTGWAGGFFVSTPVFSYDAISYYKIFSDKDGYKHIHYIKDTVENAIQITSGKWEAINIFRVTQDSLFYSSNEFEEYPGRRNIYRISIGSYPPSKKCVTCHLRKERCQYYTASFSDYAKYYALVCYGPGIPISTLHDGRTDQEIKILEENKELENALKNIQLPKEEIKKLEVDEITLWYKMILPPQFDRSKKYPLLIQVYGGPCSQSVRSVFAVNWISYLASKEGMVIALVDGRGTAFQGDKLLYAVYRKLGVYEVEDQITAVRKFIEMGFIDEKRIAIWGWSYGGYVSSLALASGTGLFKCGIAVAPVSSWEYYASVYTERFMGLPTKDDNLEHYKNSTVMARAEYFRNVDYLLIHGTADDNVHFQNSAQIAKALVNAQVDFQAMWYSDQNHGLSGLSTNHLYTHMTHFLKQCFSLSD
Description: as §1
The data from the independent assay runs was averaged and plotted using program of Origin 7.5SR6 (OriginLab Corporation, Northampton, Mass., USA). Origin's built-in non-linear regression routine was used to fit the averaged data to the ‘logistics’ function y=A2+(A1−A2)/(1+(x/IC50)^p) (Equation 1) where y is the %-inhibition at the inhibitor concentration, x. A1 is the lowest inhibition value, i.e. 0%, and A2 the maximum inhibition value, i.e. 100%. The exponent, p, is the Hill coefficient. B. Determination of IC50 Values
as §3, with “The eleven final compound concentrations were either 0.9 nM, 3 nM, 9 nM, 30 nM, 90 nM, 300 nM, 900 nM, 3 μM, 9 μM, 30 μM and 90 μM or 3 nM, 10 nM, 30 nM, 100 nM, 300 nM, 1 μM, 3 μM, 10 μM, 30 μM, 100 μM and 300 μM.” left out, “UK). […]” for “UK).”

[1] = biological target: T3, endogenous human DPP-IV from plasma sample (Homo sapiens, UniProt P27487); experiment: human plasma DPP-IV IC50 assay, (H-Ala-Pro)2-Rh110 fluorescence intensity; details: for IC50: 50% plasma
T3 construct: endogenous human DPP-IV from plasma sample, male donors; from tissue; host or cells: human blood plasma, male donors, diluted to 50% plasma content
Description: FI measurements using a Rh110 dye were done with a Safire2 reader (TECAN, Maennedorf, Switzerland). The Safire2 is a monochomator-based instrument and wavelengths of 485 nm and 535 nm were taken for fluorescence excitation and emission acquisition, respectively. The bandwidths were set to 20 nm in both the excitation and the emission path.
as §2
as §3, with “The eleven final compound concentrations were either 0.9 nM, 3 nM, 9 nM, 30 nM, 90 nM, 300 nM, 900 nM, 3 μM, 9 μM, 30 μM and 90 μM or 3 nM, 10 nM, 30 nM, 100 nM, 300 nM, 1 μM, 3 μM, 10 μM, 30 μM, 100 μM and 300 μM.” left out, “UK). […]” for “UK).”

human DPP-IV = biological target: T4, human DPP-IV (Homo sapiens, UniProt P27487); experiment: DPP-IV (dipeptidyl peptidase IV) IC50 assay, Gly-Pro-AMC fluorescence intensity
T4 construct: human DPP-IV covering amino acid 39-766; made in house; host or cells: insect cells (baculovirus expression system)
Description: as §1, §2, §3
as §4, with “2.—DPP-IV (dipeptidyl peptidase IV) enzyme:” for “4.—DPP-8 (dipeptidyl-peptidase 8) enzyme:”, “human DPP-IV” for “human DPP-8”, “acid 39-766;” for “acid 1-882;”, “concentration: 0.01” for “concentration: 0.05”

human DPP-2 = biological target: T5, human DPP-2 (Homo sapiens, UniProt Q9UHL4); experiment: DPP-2 (dipeptidyl peptidase 2) IC50 assay, Nle-Pro-AMC fluorescence intensity
T5 construct: human DPP-2 covering amino acid 30-492; made in house; host or cells: insect cells (baculovirus expression system)
Description: as §1
as §2, with “x.” for “x. A1 is the lowest inhibition value, i.e. 0%, and A2 the maximum inhibition value, i.e. 100%. The exponent, p, is the Hill coefficient. B. Determination of IC50 Values”
For the determination of IC50 values, the assays were performed at room temperature in 384-well plates. […] The effect of the compound on the enzymatic activity was obtained from the linear progress curves and determined from two readings, the first one taken directly after the addition of substrate (t=0 min) and the second one after 1 hour (t=60 min). The IC50 value was calculated from the plot of percentage of inhibition vs. inhibitor concentration using non-linear regression analysis software (XLfit, Vers. 4.0; ID Business Solution Ltd., Guildford, Surrey, UK). […]

human DPP-9 = biological target: T6, human DPP-9 (Homo sapiens, UniProt Q86TI2); experiment: DPP-9 (dipeptidyl-peptidase 9) IC50 assay, Gly-Pro-AMC fluorescence intensity
T6 construct: human DPP-9 covering amino acid 1-863; made in house; host or cells: Pichia pastoris
Description: as §1, §2, §3
5.—DPP-9 (dipeptidyl-peptidase 9) enzyme: human DPP-9 covering amino acid 1-863; expressed in and purified from Pichia pastoris substrate: Gly-Pro-AMC, purchased from Bachem (www.bachem.com), catalogue number I-1225 enzyme concentration: 1 nM substrate concentration: 10 μM assay buffer: 25 mM Tris, pH 7.4, 140 mM NaCl, 10 mM KCl, 0.05% (w/v) CHAPS

human PEP = biological target: T7, human PEP (Homo sapiens, UniProt P48147); experiment: PEP (prolyl-endopeptidase) IC50 assay, Z-Gly-Pro-AMC fluorescence intensity
T7 construct: human PEP covering amino acid 1-710; made in house; host or cells: Pichia pastoris
T7 sequence (P48147 1-710): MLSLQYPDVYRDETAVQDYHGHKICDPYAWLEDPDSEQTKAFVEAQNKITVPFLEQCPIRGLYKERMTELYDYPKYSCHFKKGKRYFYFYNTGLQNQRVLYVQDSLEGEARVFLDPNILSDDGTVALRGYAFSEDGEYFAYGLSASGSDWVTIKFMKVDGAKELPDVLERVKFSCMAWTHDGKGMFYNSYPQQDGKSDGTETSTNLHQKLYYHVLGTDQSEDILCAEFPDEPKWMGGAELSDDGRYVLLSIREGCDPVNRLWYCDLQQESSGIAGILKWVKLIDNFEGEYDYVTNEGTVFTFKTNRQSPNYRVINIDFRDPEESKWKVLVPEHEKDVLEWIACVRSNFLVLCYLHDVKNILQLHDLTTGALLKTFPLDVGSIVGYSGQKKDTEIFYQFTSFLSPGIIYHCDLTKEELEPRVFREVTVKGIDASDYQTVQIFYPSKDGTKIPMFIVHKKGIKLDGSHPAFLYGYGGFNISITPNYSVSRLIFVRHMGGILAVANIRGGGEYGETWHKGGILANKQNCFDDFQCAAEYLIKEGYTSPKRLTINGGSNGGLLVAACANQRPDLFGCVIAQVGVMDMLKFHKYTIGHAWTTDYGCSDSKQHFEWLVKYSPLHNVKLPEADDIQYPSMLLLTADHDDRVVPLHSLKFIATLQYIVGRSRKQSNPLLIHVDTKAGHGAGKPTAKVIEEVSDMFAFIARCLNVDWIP
Description: as §1, §2
as §3, with “The eleven final compound concentrations were either 0.9 nM, 3 nM, 9 nM, 30 nM, 90 nM, 300 nM, 900 nM, 3 μM, 9 μM, 30 μM and 90 μM or 3 nM, 10 nM, 30 nM, 100 nM, 300 nM, 1 μM, 3 μM, 10 μM, 30 μM, 100 μM and 300 μM.” left out, “UK). […]” for “UK).”

[2] = individual experiments 1-4, read-out: IC50 value
[3] = mean of 4 experiments, read-out: Mean IC50 value ± SD

T6 sequence (Q86TI2 whole entry): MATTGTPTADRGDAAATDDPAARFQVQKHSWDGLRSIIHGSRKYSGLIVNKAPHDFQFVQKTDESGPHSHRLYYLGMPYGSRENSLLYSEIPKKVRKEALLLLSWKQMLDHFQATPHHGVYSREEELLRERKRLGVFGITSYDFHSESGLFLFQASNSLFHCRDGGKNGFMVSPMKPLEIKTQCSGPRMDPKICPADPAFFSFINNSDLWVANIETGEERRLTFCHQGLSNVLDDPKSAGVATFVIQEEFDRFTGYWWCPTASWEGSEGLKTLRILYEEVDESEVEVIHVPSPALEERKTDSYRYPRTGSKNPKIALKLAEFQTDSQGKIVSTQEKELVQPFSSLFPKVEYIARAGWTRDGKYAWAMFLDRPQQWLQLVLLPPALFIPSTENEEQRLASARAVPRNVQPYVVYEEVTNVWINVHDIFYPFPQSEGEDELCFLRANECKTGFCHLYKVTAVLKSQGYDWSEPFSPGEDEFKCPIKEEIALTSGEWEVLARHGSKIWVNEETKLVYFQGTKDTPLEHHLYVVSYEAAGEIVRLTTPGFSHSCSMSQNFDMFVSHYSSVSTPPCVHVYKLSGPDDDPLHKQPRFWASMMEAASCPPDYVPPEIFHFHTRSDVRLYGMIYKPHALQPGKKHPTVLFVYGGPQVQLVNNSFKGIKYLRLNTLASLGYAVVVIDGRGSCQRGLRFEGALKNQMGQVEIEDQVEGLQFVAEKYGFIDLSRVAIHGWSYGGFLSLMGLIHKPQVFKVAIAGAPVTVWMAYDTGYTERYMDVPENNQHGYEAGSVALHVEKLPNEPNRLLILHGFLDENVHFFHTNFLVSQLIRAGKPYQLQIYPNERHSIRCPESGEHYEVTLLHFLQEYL
T1 sequence (Q6V1X1 17-898): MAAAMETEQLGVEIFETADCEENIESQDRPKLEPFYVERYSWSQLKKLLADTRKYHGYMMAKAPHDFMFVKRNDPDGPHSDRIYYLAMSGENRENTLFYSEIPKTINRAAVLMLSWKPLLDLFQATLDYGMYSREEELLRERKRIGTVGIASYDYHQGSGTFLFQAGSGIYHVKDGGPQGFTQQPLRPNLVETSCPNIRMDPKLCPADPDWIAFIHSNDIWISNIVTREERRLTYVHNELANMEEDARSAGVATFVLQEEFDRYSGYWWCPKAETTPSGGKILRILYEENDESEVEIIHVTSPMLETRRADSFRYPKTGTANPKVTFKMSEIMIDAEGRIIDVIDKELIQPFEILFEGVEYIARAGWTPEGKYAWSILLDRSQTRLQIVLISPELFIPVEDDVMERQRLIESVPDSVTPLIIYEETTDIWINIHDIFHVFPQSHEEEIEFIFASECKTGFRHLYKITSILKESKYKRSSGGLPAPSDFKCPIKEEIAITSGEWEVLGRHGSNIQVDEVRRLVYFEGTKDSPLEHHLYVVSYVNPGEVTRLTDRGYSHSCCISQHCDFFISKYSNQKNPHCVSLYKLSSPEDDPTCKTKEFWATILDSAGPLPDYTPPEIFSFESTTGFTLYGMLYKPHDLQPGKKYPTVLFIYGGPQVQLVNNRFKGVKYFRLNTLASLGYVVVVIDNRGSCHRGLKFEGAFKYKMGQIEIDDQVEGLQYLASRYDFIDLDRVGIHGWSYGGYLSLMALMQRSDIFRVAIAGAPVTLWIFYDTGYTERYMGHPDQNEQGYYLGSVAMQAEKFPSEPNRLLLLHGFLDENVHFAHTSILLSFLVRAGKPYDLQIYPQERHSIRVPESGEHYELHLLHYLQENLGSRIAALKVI
T3 sequence (P27487 39-766 limits assumed): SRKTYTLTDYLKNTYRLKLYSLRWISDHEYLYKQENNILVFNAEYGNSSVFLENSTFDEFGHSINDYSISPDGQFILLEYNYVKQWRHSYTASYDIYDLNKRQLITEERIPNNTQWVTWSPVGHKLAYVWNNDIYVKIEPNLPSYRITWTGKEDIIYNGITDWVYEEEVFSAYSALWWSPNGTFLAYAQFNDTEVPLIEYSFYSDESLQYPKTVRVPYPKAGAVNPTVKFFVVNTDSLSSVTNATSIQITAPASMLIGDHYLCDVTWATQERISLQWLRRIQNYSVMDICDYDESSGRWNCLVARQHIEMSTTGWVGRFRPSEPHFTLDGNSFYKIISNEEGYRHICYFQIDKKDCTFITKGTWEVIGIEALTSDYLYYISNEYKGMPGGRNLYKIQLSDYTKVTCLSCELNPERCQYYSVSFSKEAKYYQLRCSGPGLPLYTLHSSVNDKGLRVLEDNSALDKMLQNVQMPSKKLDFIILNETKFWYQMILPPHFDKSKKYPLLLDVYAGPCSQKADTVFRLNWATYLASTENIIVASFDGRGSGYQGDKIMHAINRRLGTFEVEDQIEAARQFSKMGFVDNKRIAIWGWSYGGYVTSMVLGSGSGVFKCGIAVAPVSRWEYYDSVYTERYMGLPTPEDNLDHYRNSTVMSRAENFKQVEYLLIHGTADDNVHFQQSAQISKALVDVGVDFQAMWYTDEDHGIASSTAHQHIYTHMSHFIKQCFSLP
T4 sequence (P27487 39-766): as the sequence (P27487 39-766 limits assumed) above

`N#C[C@@H]1CCCN1C(=O)CNC12CC3CC(C1)CC(O[C@@H]1O[C@H](C(=O)O)[C@@H](O)[C@H](O)[C@H]1O)(C3)C2` [NVP-BQS867-NX-2] was tested, and the “potency at inhibiting DPP-8 enzyme” value (human DPP-8; compared with vildagliptin) was “less potent”, the Hill coefficient (human DPP-8; human DPP-8, individual experiments 1-4) was 1.2 (3×) and 1.3 and the IC50 (human DPP-8; human DPP-8, individual experiments 1-4, read-out: IC50 value) was 8.3 µM and 8 µM and 8.1 µM and 7.6 µM. For the same compound, the IC50 (human DPP-8; human DPP-8, mean of 4 experiments, read-out: Mean IC50 value ± SD) was 8 ± 0.3 µM, the Hill coefficient (human FAP; individual experiments 1-4) was 1.3 and 0.8 (2×) and 0.7 and the IC50 (human FAP; [2]) was 43 µM and 16 µM and 19 µM. For the same compound, the IC50 (human FAP; [3]) was 24 ± 13 µM, the IC50 [1, 2] was 0.003 µM and 0.004 µM and the IC50 [1, 3] was 0.004 ± 0.001 µM. For the same compound, the Hill coefficient ([1]; individual experiments 1-4) was 1.4 (2×) and 1.2 (2×), the “potency at inhibiting the DPP-4 enzyme” value (human DPP-IV; compared with vildagliptin) was “equally potent to vildagliptin” and the Hill coefficient (human DPP-IV; human DPP-IV, individual experiments 1-4) was 0.7 and 0.9 and 1.3 and 1.1. For the same compound, the IC50 (human DPP-IV; human DPP-IV, individual experiments 1-4, read-out: IC50 value) was 0.004 µM and 0.006 µM and 0.007 µM and 0.005 µM, the IC50 (human DPP-IV; human DPP-IV, mean of 4 experiments, read-out: Mean IC50 value ± SD) was 0.006 ± 0.001 µM and the IC50 (human DPP-2; [2]) was > 300 µM. For the same compound, the IC50 (human DPP-2; [3]) was > 90 µM, the “potency at inhibiting DPP-9 enzyme” value (human DPP-9; compared with vildagliptin) was “less potent” and the Hill coefficient (human DPP-9; human DPP-9, individual experiments 1-4) was 1.0 (2×) and 0.9 (2×). For the same compound, the IC50 (human DPP-9; human DPP-9, individual experiments 1-4, read-out: IC50 value) was 0.7 µM and 0.4 µM and 0.6 µM, the IC50 (human DPP-9; human DPP-9, mean of 4 experiments, read-out: Mean IC50 value ± SD) was 0.5 ± 0.2 µM and the Hill coefficient (human PEP; individual experiments 1-4) was 0.7 and 1.2 and 0.8 and 0.6. The IC50 (human PEP; [2]) was 52 µM and 15 µM and 18 µM and 14 µM and the IC50 (human PEP; [3]) was 25 ± 18 µM.
